{
  "source": "patent US20150023920A1",
  "about": "“NOVEL COMPOSITIONS AND METHODS FOR PREVENTING OR TREATING CANCER METASTASIS” (Drexel University, priority 2012, published 2015)",
  "key": {"[1]": {"test_system": "mouse models of acute gout", "details": "in vivo; cited from earlier work"}, "[2]": {"test_system": "other members of the interleukin-1 family, including interleukin-1 alpha", "details": "cited from earlier work"}, "[3]": {"test_system": "COX-2 expression in human bone Mesenchymal Stem Cells (MSCs)", "test": "COX-2 expression in human MSCs exposed to PC3-ML conditioned medium (Western blot)", "type": "cell-based", "details": "Anakinra 10 μg/ml pre-treatment 30 minutes; MSCs exposed 48 hours to PC3-ML conditioned medium", "procedure": "Bone marrow-derived Human Mesenchymal Stem cells (MSCs) (Lonza, Allendale, N.J.) were used between passage 5 and 8 and cultured in MSC growth medium (α-MEM (Invitrogen) supplemented with 10% FBS, 1 ng/ml bFGF (R&D Systems, Minneapolis, Minn.), and 0.1% gentamicin).\n(§1) Cell lysates were obtained and SDS-PAGE and Western Blot analysis performed as previously described, with few modifications. Membranes were blotted with antibodies targeting PDGFRα, PDGFRβ, IL1-β (SC-7884, Santa Cruz, Dallas, Tex.), Actin (A-2066, Sigma-Aldrich, St. Louis, Mo.), COX-2 (ab15191, AbCam, Cambridge, UK) Elafin (SC-20637, Santa Cruz) and GAPDH (DI6H11, Cell Signaling Technology, Beverly, Mass.). Primary antibody binding was detected using an HRP-conjugated secondary antibody (Pierce). Chemiluminescence signals were obtained using SuperSignal West Femto reagents (Pierce) and detected with the Fluorochem 8900 imaging system and relative software (Alpha Innotech).\nConditioned media were obtained according to Li et al., 2012, Cancer Disc. 2:840-55. In brief, 7.5×10^5 PC3-ML cells were plated in 15 ml of DMEM supplemented with 10% fetal bovine serum and 0.1% gentamicin and cultured for five days. The medium from each dish was then collected and centrifuged at 2000 rpm for 10 minutes and then used fresh as described below. […]"}, "[4]": {"test_system": "production of interleukin-1β", "details": "cited from earlier work"}, "IL-1β in PC3-ML cells": {"test_system": "IL-1β in PC3-ML cells", "test": "IL-1β silencing by stable shRNA transduction in PC3-ML cells (Western blot, ELISA)", "type": "cell-based, human", "details": "stable transduction of shRNA", "procedure": "Mission TRC lentiviral shRNA vectors (Sigma-Aldrich) were used to knock down IL1-β. The following shRNA sequence was used:\nLentiviral particles were used to infect […] cell cultures, overnight in the presence of 8 μg/ml polybrene (Millipore). The successful infected cells were selected for the ability to proliferate in media containing G418 ([…]). The resulting cells were characterized by Western blot analysis using an antibody against IL1β.\nas §1\nThe concentrations of IL-1β and CXCL6 were measured by ELISA as described in the manufacturers' protocols. […] The supernatant was then collected and the protein concentration was measured using Quantikine kits (R&D systems)."}, "[5]": {"test_system": "PC3-ML bone-metastatic prostate cancer cells", "test": "Animal model of metastasis, intracardiac inoculation of cancer cells", "type": "in vivo, mouse", "details": "mice inoculated via systemic arterial circulation with shRNA-transduced PC3-ML cells, four weeks post-inoculation", "procedure": "Five week-old male immunocompromised mice (CBI 7-SCRF) were obtained from Taconic and housed in a germ-free barrier. At six weeks of age, mice were anesthetized with 100 mg/kg ketamine and 20 mg/kg xylazine and successively inoculated in the left cardiac ventricle with cancer cells (5×10^4 in 100 μl of serum-free DMEM/F12). Cell inoculation was performed using a 30-gauge needle connected to a 1 ml syringe. The delivery of the cell suspension in the systemic blood circulation was validated by the co-injection of blue-fluorescent 10 μm polystyrene beads (Invitrogen-Molecular Probes). Animals were randomly assigned to different experimental groups and sacrificed at specified time points following inoculation. Organs were harvested and prepared as described below and tissue sections inspected blindly for metastatic lesions. The homogeneous and numerically-consistent distribution of the beads in adrenal glands and lungs collected at necropsy and inspected by fluorescence microscopy were used as discrimination criteria for the inclusion of animals in the studies. […]\nBright-field and fluorescent images of skeletal metastases were acquired using an Olympus stereomicroscope coupled to an Olympus DT70 CCD color camera. Digital images were analyzed with ImageJ software and calibrated for measurement by obtaining a pixel to millimeter ratio. […]"}},
  "note": "Entries after “also recorded” stand apart in the source; their conditions may differ.",
  "data": [
    {"compound": "XOMA-052: potent anti-IL-1β humanized neutralizing antibody", "values": [
      {"measurement": "activity in mouse models of acute gout", "setting": "[1]", "value": "active"}
    ]},
    {"compound": "Canakinumab: human monoclonal antibody targeted at interleukin-1 beta", "values": [
      {"measurement": "cross-reactivity with other members of the interleukin-1 family, including interleukin-1 alpha", "setting": "[2]", "value": "no cross-reactivity"}
    ]},
    {"compound": "Anakinra: recombinant, non-glycosylated version of human IL-1 receptor antagonist prepared from genetically modified E. coli", "values": [
      {"measurement": "Increase in COX-2 expression in MSCs induced by PC3-ML conditioned medium", "setting": "[3]", "value": "completely prevent; also recorded: inhibited"}
    ]},
    {"compound": "CSc1ccc(-c2nn(Cc3ccccc3)c(=O)cc2-c2ccc(Cl)cc2)cc1", "note": "[K-832, 2-benzyl-5-(4-chlorophenyl)-6-[4-(methylthio)phenyl]-2H-pyridazin-3-one]", "values": [
      {"measurement": "inhibitory activity against production of interleukin-1β", "setting": "[4]", "value": "high inhibitory activity"}
    ]},
    {"compound": "5′-CGGCCAGGATATAACTGACTT-3′ (listed as DNA, chemistry not given here) [shRNA, Mission TRC lentiviral shRNA used to knock down IL1-β in PC3-ML cells]", "values": [
      {"measurement": "IL-1β expression in PC3-ML cells after silencing", "setting": "IL-1β in PC3-ML cells", "value": "expression levels lower than PC3-N cells"},
      {"measurement": "reduction of size of bone-metastatic tumors", "setting": "[5]", "value": "approximately 70%"}
    ]}
  ]
}
